# From patent publication US20110150914A1, “COMPOSITIONS AND METHODS FOR DENGUE VIRUS (DV) TREATMENT AND VACCINATION” (priority 2008, published 2011)
# Ends that are not written are not given here.
# Assays:
# [1] = molecular target: T1, purified H-2 D^b molecules (Mus musculus, UniProt P01899); assay: MHC peptide-binding assay, purified H-2 D^b; conditions: purified MHC, radiolabeled peptide competition; read-out: Binding affinity (IC50 nM) H2-D^b
# T1 construct: made in house
# Protocol: (§1) Briefly, 0.1-1 nM of radiolabeled peptide was co-incubated at room temperature with 1 μM to 1 nM of purified MHC in the presence of 1-3 μM human β2-microglobulin (Scripps Laboratories) and a mixture of protease inhibitors. After a 2 day incubation, binding of the radiolabeled peptide to the corresponding MHC class I molecule was determined by capturing MHC/peptide complexes on Lumitrac 600 microplates (Greiner Bio-One) coated with either the Y3 (anti-H-2 K^b) or 28-14-8S (anti-H-2 D^b, L^d and D^q) Ab, followed by measurement of bound counts per minute (cpm) using the TopCount microscintillation counter (Packard).
# [2] = molecular target: T2, purified H-2 K^b molecules (Mus musculus, UniProt P01901); assay: MHC peptide-binding assay, purified H-2 K^b; conditions: purified MHC, radiolabeled peptide competition; read-out: Binding affinity (IC50 nM) H2-K^b
# T2 construct: made in house
# Protocol: as §1, with “MHC purification and quantitative assays to measure the binding affinity of peptides to purified H-2 K^b and H-2 D^b molecules were performed as previously described (Sidney et al., Curr Protoc Immunol 18:1813 2001); Vitiello et al., J Immunol 157:5555 (1996)). Briefly,” for “Briefly,”
# To confirm the MHC class I restriction of the 12 identified epitopes, measurements were performed of their MHC binding capacity using purified K^b and D^b molecules in an in vitro binding assay. Seven of the 12 epitopes bound the predicted allele with either high or intermediate affinity, as indicated by an IC50 of <50 nM or <500 nM, respectively. The five remaining epitopes also bound with biologically relevant affinities in the 500-2000 nM range.
# CD8^+ T cells = assay: TNF-α and CD107a staining after peptide re-stimulation; assay type: cell-based, wild-type or IFN-α/βR^−/− mice; conditions: splenocytes day 7 after S221 infection
# Protocol: All Ab were purchased from eBioscience with the exception of anti-CD8α-PerCP and anti-CD107a-FITC which were obtained from BD Biosciences. RBC in blood were lysed using RBC lysis buffer (eBioscience). For surface staining, splenocytes or blood cells were washed, incubated with supernatant from 2.4G2-producing hybridoma cells to block Fc receptors, and labeled with anti-CD8α-PerCP, anti-CD44-APC, and anti-CD62L-PE. For intracellular cytokine staining, 10^6 splenocytes or 10^5 blood cells were plated in 96-well U-bottom plates and stimulated with individual DENV peptides (0.1 μg/ml) in the presence of brefeldin A (GolgiPlug, BD Biosciences) for 5 h. For CD107a staining, CD107a-FITC (or rat IgG2a-FITC) was added to the wells at the same time as the peptide. Cells were washed, incubated with 2.4G2 supernatant, labeled with anti-CD8α-PerCP, fixed and permeabilized using the BD Cytofix/Cytoperm Kit, and stained with anti-IFN-γ-APC and anti-TNF-α-PE. Samples were read on a FACS Caliber (BD Biosciences) and analyzed using FloJo software (Tree Star, Inc.)
# Because polyfunctional CD8^+ T cell responses are associated with protection (Harari et al., Immunol Rev 211:236 (2006)), the phenotype of the DENV-specific CD8^+ T cells in wild-type and IFN-α/βR^−/− mice was studied in more detail by measuring CD107a expression (CD107a, or LAMP-1, is expressed on the cell surface upon degranulation) and TNF-α production for two of the DENV-specific CD8^+ T cell populations, as described above. To collect the data, splenocytes harvested from wild-type or IFN-α/βR^−/− mice 7 days after infection with 10^11 or 10^10 GE of S221, respectively, were re-stimulated in vitro with C51-59, NS4B99-107, or an irrelevant peptide. An anti-CD107a Ab was added for the duration of the stimulation. Cells were then stained for surface CD8, intracellular IFN-γ and TNF-α, and analyzed by flow cytometry.
# [3] = system: DENV peptide-pulsed target cells; assay: In vivo cytotoxicity assay; conditions: IFN-α/βR^−/− mice infected 7 days previously with 10^10 GE S221; 4 h after i.v. transfer; targets pulsed 0.5 μg/ml
# T1 sequence (P61769 21-119): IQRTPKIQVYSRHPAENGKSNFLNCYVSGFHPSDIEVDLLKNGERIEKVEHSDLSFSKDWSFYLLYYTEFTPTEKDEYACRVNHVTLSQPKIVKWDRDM
# T1 sequence (P01899 25-362): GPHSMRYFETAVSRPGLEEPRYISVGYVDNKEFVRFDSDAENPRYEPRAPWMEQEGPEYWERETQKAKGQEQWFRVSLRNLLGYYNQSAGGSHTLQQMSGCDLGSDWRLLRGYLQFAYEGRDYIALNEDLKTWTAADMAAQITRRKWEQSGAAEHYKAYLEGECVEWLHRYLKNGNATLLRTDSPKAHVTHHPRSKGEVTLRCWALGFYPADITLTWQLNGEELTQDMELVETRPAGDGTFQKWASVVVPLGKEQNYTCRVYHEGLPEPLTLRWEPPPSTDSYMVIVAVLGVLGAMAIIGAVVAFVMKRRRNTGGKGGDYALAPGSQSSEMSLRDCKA
# T2 sequence (P61769 21-119): as the sequence (P61769 21-119) above
# T2 sequence (P01901 22-369): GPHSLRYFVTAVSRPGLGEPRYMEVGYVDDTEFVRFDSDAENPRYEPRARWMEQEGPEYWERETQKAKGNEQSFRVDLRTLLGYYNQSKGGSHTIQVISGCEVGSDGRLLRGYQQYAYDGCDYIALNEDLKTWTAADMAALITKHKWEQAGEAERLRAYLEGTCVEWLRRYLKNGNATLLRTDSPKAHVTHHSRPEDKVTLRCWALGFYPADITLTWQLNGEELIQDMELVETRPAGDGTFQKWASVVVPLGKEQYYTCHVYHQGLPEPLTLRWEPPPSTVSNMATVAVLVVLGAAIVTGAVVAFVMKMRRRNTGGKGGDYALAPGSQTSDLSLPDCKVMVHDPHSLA
sequence,measurement,setting,value
YSQVNPITL [NS4B99-107],IC50,[1],1.3 nM
same,IC50,[2],1890 nM
same,CD107a surface expression (degranulation),CD8^+ T cells,expressed CD107a on the surface
same,TNF-α production by peptide-specific CD8^+ T cells,CD8^+ T cells,produced TNF-α
same,percentage killing of peptide-pulsed target cells,[3],85%
